Reference: patent US20090042783A1, “APO E ANALOGS AND METHODS FOR THEIR USE” (priority 2004, published 2009)
Like-named read-outs stand apart in the source and are kept apart here. Marks after values point to notes of the source that are not given here. Non-standard residues stand in square brackets, D forms with d. Aib = CC(C)(N)C(=O)O

How the values were obtained:
BV2 microglial cells = test system: BV2 microglial cells
Procedure: For suppression of inflammation profiling, each peptide analog was tested at a final concentration of 0.1, […], 1, 3, 5, 10 and 25 μM in an LPS induced BV2 microglial cell release of NO and/or TNFα. […] The modification was a biotin label on the apoE peptide (biotin-[…]-amide) which allows detection with ^125I-streptavidin (ISA, Amersham).
In overview, BV-2 cells are plated in 96 well plates in complete media and then the media is replaced the next day with serum free media or reduced serum (1%) media. […] Each concentration of peptide (standard initial concentrations are 0.1, 0.5, 1, 3, 10 and 25 μM) is added to at least 6 wells of cells (e.g. 6 wells get 0.1 μM peptide, 6 wells get 0.5 μM peptide, etc.) and data are averaged from all 6 wells. […] (2001). Cell viability is also measured with an MTT assay (Laskowitz et al. 2001).

[1] = test system: BV2 murine microglial cells
Procedure: For Applicants preliminary work, the two most common PTDs, TAT and penetratin, were used.
Cell Culture: BV-2, a well-characterized murine microglial cell line (Bochinni, 1992), is cultured in high glucose content DMEM supplemented with 1% penicillin/streptomycin, 10% fetal calf serum, 1% nonessential amino acids, and 1% sodium pyruvate. Cells are grown to confluency; trypsinized; spun down; resuspended in serum-free OptiMEM containing 1% N2 supplement, 1% penicillin/streptomycin, 1% nonessential amino acids, and 1% sodium pyruvate; and plated at a concentration of 20,000 cells/well to remove any nonadherent cells and serum.
Supernatant is collected 24 and/or 48 h after LPS stimulation and assayed for nitrite.
Quantification of Nitric Oxide (NO): Accumulation of nitrite (stable end product of NO production) in the medium is measured by colometric Griess reagent system (Promega); the absorbance is determined at 540 nm.
Cell Viability Assay: Cell viability is measured using a nonradioactive cell viability assay (cell titer 96 AQ, Promega). The assay measures the bioreduction of MTS (3-(4,5-dimethylthiazole-2-)-5-(3-carboxymethoxyphenyl)-2-(4-sulfophenyl)-2H-tetrazolium by viable cells into formazan. The absorbance of the calorimetric assay is measured at λ 490 nm. Viability is assessed and used to normalize the nitrite data.

[2] = test system: mice with traumatic brain injury; test: Closed head injury model of traumatic brain injury (rotorod, Morris Water Maze)
Procedure: C57Bl/6J male mice (The Jackson Laboratory, ME), 12-16 weeks of age and weighing 24-32 g, are used for all experiments. Anesthesia is first induced with isoflurane in 30% O2/balance N2. The trachea is intubated and the lungs mechanically ventilated with 1.6% isoflurane in 30% O2/balance N2. Temperature is monitored with a rectal probe and maintained at 36.5° C. with a heat lamp. The right internal jugular vein is cannulated with silicone catheter. […] Intubated animals are then placed prone on a molded acrylic cast (FIG. 6A). […] The scalp is incised and the skull exposed. A concave 3 mm metallic disc is secured to the skull surface (with the concave surface in juxtaposition to the skull) by an adhesive. […] The disc is placed directly midline just caudal to bregma (FIG. 6B). […] The mice are positioned in a stereotactic frame. Although the stereotactactic frame helps to stabilize the animal and exactly calibrate the vertical displacement on impact (3 mm), ear bars are not used due to a much higher rate of skull fracture (or brainstem injury if the head rotates around the axis of the ear bars during impact). The piston is discharged at 6.8±0.2 m/s so as to impact the skull in the acrylic mold to move a maximum of approximately 3 mm (FIG. 6C). Inspired isoflurane is decreased to 0.7% immediately after impact. The scalp was infiltrated with lidocaine and closed with suture. Ophthalmic ointment was applied to the eyes for protection. The incidence of skull fracture is low (approximately 10%), as the metal disk helps to diffuse the impact, and the absence of ear bar fixation allows for displacement of the entire head. Mice were excluded if a depressed skull fracture was observed (incidence of approximately 10%). The animals are allowed to recover spontaneous ventilation then extubated. […] In these mice, arterial blood pressure, blood gas and glucose measurement at baseline, immediately after injury, and 15 minutes after injury are monitored during the recovery period.
Briefly, baseline performance on rotorod is established before the mice are intubated, the skin over the scalp reflected and a controlled cortical impact from a pneumatic impactor given on the midline. The skin is closed with surgical clips and the animals are constantly monitored until awake from anesthesia and then hourly for the next 4 hours. […] Performance on rotorod is tested at 24 hours post impaction and then every day for 5 days and data is presented as described. Groups of 12 mice are used for each compound at 0.5×MTD. […] Novel peptides and non-peptide analogs are also given by tail vein injection.
Daily Rotarod (RR) testing was used to assess short term motor and cerebellar deficit following head injury (Hamm et al., 1994). Mice were held by their tails and placed on the RR facing the wall by using gentle swinging motion while running in a constant speed mode.

[3] = test system: mice infected with C. rodentium; test: C. rodentium colitis; assay type: in vivo; conditions: for Colon wt (% Total Body wt) / Histology Score / Body wt (% Total Body wt): WT mice, 10 days; for Body wt (% Total Body wt): 0.1% BEC or 2.5% DFMO
From the text: C. rodentium colitis: Of the two existing mouse models (Gobert A P et al., 2004; Cheng Y. et al., 2003), the C. rodentium model was selected because it produces a Th1-predominant mucosal inflammation that has histologic changes similar to human IBD (Higgins L M et al., 1999). In this model, mice are infected by oral gavage with C. rodentium (Gobert A P et al., 2004), a gram negative pathogenic bacterium that is the rodent equivalent of enteropathogenic E. coli that causes diarrhea in humans.
Since arginase I and iNOS were both abundantly expressed in the colitis tissues and L-Arg was completely metabolized, we investigated the effect of administration of 1% L-Arg in the drinking water. In wild type (WT) mice, C. rodentium colitis induced a high level of mortality that began on day 9 post-infection (FIG. 31A). In WT animals treated with L-Arg, mortality was inhibited by 42% and 62% compared to mice receiving water alone, after 12 and 14 days of infection, respectively (FIG. 31A). By Cox regression analysis, WT mice treated with L-Arg had only a 31% hazard of death compared with mice receiving water alone (p<0.0009). In iNOS^−/− mice, no deaths were observed, with or without L-Arg (FIG. 31A). […] Note that the weight loss of WT mice is underestimated, since only the weights of animals still alive could be included. […] There was an additive effect of iNOS deletion and L-Arg administration, with a 68% decrease in colon weight. Neither iNOS deletion nor L-Arg treatment affected colon weight in uninfected control mice. Importantly, these changes were closely paralleled by changes in colon histology (FIG. 32).
In uninfected control mice, BEC or DFMO had no effect (Table I). […] In fact, experiments had to be terminated early at 10 days post-infection, because of deaths and severe disease at this point.

**Q.** “apoE 130-148: truncated apoE peptide, residues 130-148 (TEELRVRLASHLRKLRKRL; UniProt P02649 148-166, looked up, fragment)” was tested. Which “Activity at 25 μM in suppression of NO / TNFα release” value (“Activity … of NO / TNFα release” for short) (BV2 microglial cells) did it give?
**A.** failed to show activity

**Q.** With “Ac-RRLSYSRRRFLRVRLASHLRKLRKRLL-NH2 (N-terminus and C-terminus assumed) [SynB3]” as the compound, how does the IC50 [1] read?
**A.** 5.9 µM

**Q.** And the IC50 ([1]; read-out: IC50 TNFα, in vitro)?
**A.** 5.1 µM

**Q.** What about the “Rotorod latency, single tail vein injection 2 hours post TBI” value ([2]; 2 hours post traumatic brain injury) of the same compound?
**A.** significantly improves outcome from head trauma

**Q.** And the “In vivo Therapeutic window time expanded?” value ([2]; mouse, in vivo)?
**A.** Yes; tested at 4 X

**Q.** For `NCCCC(N)(C(=O)O)C(F)F` (stereo not shown) [DFMO, -difluoromethylornithine], which “Colon wt (% Total Body wt)” value ([3]; C. rodentium) is on record?
**A.** 1.35 ± 0.12^b,d % Total Body wt

**Q.** What about the “Histology Score” value ([3]; C. rodentium) of the same compound?
**A.** 9.54 ± 0.68^b,d

**Q.** What about the “Body wt (% Total Body wt)” value ([3]; C. rodentium) of the same compound?
**A.** 78.6 ± 0.4^b,c % Total Body wt

**Q.** And the “Colon wt (% Total Body wt)” value ([3]; PBS (uninfected))?
**A.** 0.61 ± 0.07 % Total Body wt

**Q.** What about the “Histology Score” value ([3]; PBS (uninfected)) of the same compound?
**A.** 0.75 ± 0.25

**Q.** And the “Body wt (% Total Body wt)” value ([3]; PBS (uninfected))?
**A.** 101.3 ± 2.6 % Total Body wt

**Q.** What about the “Survival of C. rodentium-infected mice” value ([3]; in the drinking water) of the same compound?
**A.** significant loss of survival

**Q.** What about the “Effect in uninfected control mice” value ([3]; mouse, in vivo) of the same compound?
**A.** had no effect

**Q.** Which “Fold less potent than apoE 130-150” value (BV2 microglial cells) does the source give for “ApoE 135-149: truncated apoE peptide, residues 135-149 (VRLASHLRKLRKRLL; UniProt P02649 153-167, looked up, fragment)” here?
**A.** 5 fold

**Q.** With “apoE 137-149: truncated apoE peptide, residues 137-149 (LASHLRKLRKRLL; UniProt P02649 155-167, looked up, fragment)” as the compound, how does the “Activity … of NO / TNFα release” value (BV2 microglial cells) read?
**A.** failed to show activity

**Q.** Which results are given for “Ac-RRRRRRRRLRVRLASHLRKLRKRLL-NH2 (N-terminus and C-terminus assumed) [polyArg (8R)]”?
**A.** IC50 [1]: 4 µM; IC50 ([1]; read-out: IC50 TNFα, in vitro): 4.2 µM

**Q.** Which “Fold less potent than apoE 130-150” value (BV2 microglial cells) does the source give for “apoE 136-149: truncated apoE peptide, residues 136-149 (RLASHLRKLRKRLL; UniProt P02649 154-167, looked up, fragment)” here?
**A.** 8 fold

**Q.** How did the “Activity … of NO / TNFα release” value (BV2 microglial cells) turn out when “ApoE 139-149: truncated apoE peptide, residues 139-149 (SHLRKLRKRLL; UniProt P02649 157-167, looked up, fragment)” was run?
**A.** failed to show activity

**Q.** Which “Activity … of NO / TNFα release” value (BV2 microglial cells) does the source give for Ac-ASHLRKLRKRLL-NH2 [apoE 138-149] here?
**A.** failed to show activity

**Q.** How did the “Fold less potent than apoE 130-150” value (BV2 microglial cells) turn out when “apoE 134-149: truncated apoE peptide, residues 134-149 (RVRLASHLRKLRKRLL; UniProt P02649 152-167, looked up, fragment)” was run?
**A.** 2.5 fold

**Q.** Which “Activity … of NO / TNFα release” value (BV2 microglial cells) does the source give for “apoE 130-147: truncated apoE peptide, residues 130-147 (TEELRVRLASHLRKLRKR; UniProt P02649 148-165, looked up, fragment)” here?
**A.** failed to show activity

**Q.** LRVRLASHLRKLRKRLA [L149A] was tested. Which EC50 (BV2 microglial cells; read-out: Structure activity in the COG133 peptide from single amino acid replacements, binding and/or suppression of NO or TNFα release, compared with 3.5 μM EC50 of COG133) did it give?
**A.** > 3.5 µM

**Q.** For `CSCC[C@H](NC(=O)[C@H](CCCNC(=N)N)NC(=O)[C@H](CCCNC(=N)N)NC(C)=O)C(=O)N[C@@H](CCCCN)C(=O)N[C@@H](Cc1c[nH]c2ccccc12)C(=O)N[C@@H](CCCCN)C(=O)N[C@@H](CCCCN)C(=O)N[C@@H](CC(C)C)C(=O)N[C@@H](CCCNC(=N)N)C(=O)N[C@H](C(=O)N[C@@H](CCCNC(=N)N)C(=O)N[C@@H](CC(C)C)C(=O)N[C@@H](C)C(=O)N[C@@H](CO)C(=O)N[C@@H](Cc1c[nH]cn1)C(=O)N[C@@H](CC(C)C)C(=O)N[C@@H](CCCNC(=N)N)C(=O)N[C@@H](CCCCN)C(=O)N[C@@H](CC(C)C)C(=O)N[C@@H](CCCNC(=N)N)C(=O)N[C@@H](CCCCN)C(=O)N[C@@H](CCCNC(=N)N)C(=O)N[C@@H](CC(C)C)C(=O)N[C@@H](CC(C)C)C(N)=O)C(C)C` [antp (52-58)], which IC50 [1] is on record?
**A.** 11 µM

**Q.** With “Ac-ASHLRKL-Aib-KRLL-NH2 (Ac-ASHLRKL[Aib]KRLL-NH2; SMILES CC(=O)N[C@@H](C)C(=O)N[C@@H](CO)C(=O)N[C@@H](Cc1c[nH]cn1)C(=O)N[C@@H](CC(C)C)C(=O)N[C@@H](CCCNC(=N)N)C(=O)N[C@@H](CCCCN)C(=O)N[C@@H](CC(C)C)C(=O)NC(C)(C)C(=O)N[C@@H](CCCCN)C(=O)N[C@@H](CCCNC(=N)N)C(=O)N[C@@H](CC(C)C)C(=O)N[C@@H](CC(C)C)C(N)=O) [COG432]” as the compound, how does the “Rotorod performance (100% is performance prior to TBI)” value ([2]; 4 mg/kg, started 2 hours post TBI, day 5 post TBI) read?
**A.** about 80%
